The supplement of paper PMC13380429

Experiments:
Conditions in all cases: 72 h
[1] = tested on: Calu-3; test: cell viability relative to DMSO; higher = less toxic
[2] = tested on: Vero E6; test: as above
[3] = tested on: HepG2; test: as above
[4] = tested on: Caco-2; test: as above
[5] = tested on: U2OS; test: as above
[6] = tested on: Calu-3; test: relative viability EC50 (midpoint between 100% and the lowest measured viability); higher = less toxic
[7] = tested on: Vero E6; test: as above
[8] = tested on: HepG2; test: as above
[9] = tested on: Caco-2; test: as above
[10] = tested on: U2OS; test: as above
[11] = tested on: Calu-3; test: drug sensitivity score (DSS) for viability; higher = more toxic; extreme values may be limits of the assay
[12] = tested on: Vero E6; test: as above
[13] = tested on: HepG2; test: as above
[14] = tested on: Caco-2; test: as above
[15] = tested on: U2OS; test: as above

Structure (SMILES) | cell viability ([1]; 1 nM) [%] | cell viability ([1]; 10 nM) [%] | cell viability ([1]; 100 nM) [%] | cell viability ([1]; 1000 nM) [%] | cell viability ([1]; 10000 nM) [%] | cell viability ([2]; 1 nM) [%] | cell viability ([2]; 10 nM) [%] | cell viability ([2]; 100 nM) [%] | cell viability ([2]; 1000 nM) [%] | cell viability ([2]; 10000 nM) [%] | cell viability ([3]; 1 nM) [%] | cell viability ([3]; 10 nM) [%] | cell viability ([3]; 100 nM) [%] | cell viability ([3]; 1000 nM) [%] | cell viability ([3]; 10000 nM) [%] | cell viability ([4]; 1 nM) [%] | cell viability ([4]; 10 nM) [%] | cell viability ([4]; 100 nM) [%] | cell viability ([4]; 1000 nM) [%] | cell viability ([4]; 10000 nM) [%] | cell viability ([5]; 1 nM) [%] | cell viability ([5]; 10 nM) [%] | cell viability ([5]; 100 nM) [%] | cell viability ([5]; 1000 nM) [%] | cell viability ([5]; 10000 nM) [%] | relative viability EC50 [6] [µM] | relative viability EC50 [7] [µM] | relative viability EC50 [8] [µM] | relative viability EC50 [9] [µM] | relative viability EC50 [10] [µM] | drug sensitivity score [11] | drug sensitivity score [12] | drug sensitivity score [13] | drug sensitivity score [14] | drug sensitivity score [15]
C/C=C1\NC(=O)[C@H]2CSSCC/C=C/[C@H](CC(=O)N[C@H](C(C)C)C(=O)N2)OC(=O)[C@H](C(C)C)NC1=O [romidepsin] | 92.5 | 39.4 | 8.7 | 6.3 | 2.5 | 98.1 | 102 | 87.8 | 0.1 | -0.1 | 87.1 | 31.9 | 0.5 | -0.4 | 0.1 | 104 | 124 | 6.6 | 1.4 | 0.2 | 96.9 | 55.5 | 5.6 | 0.5 | 0.2 | 0.0068 | 0.217 | 0.0052 | 0.0451 | 0.0117 | 37 | 20 | 39.4 | 28.5 | 35.1
CN1CCN(c2nc(C3=C(c4c[nH]c5ccccc45)C(=O)NC3=O)c3ccccc3n2)CC1 [sotrastaurin] | 101 | 94.6 | 96 | 97.6 | 98.6 | 96.1 | 99.4 | 100 | 99.3 | 101 | 108 | 107 | 101 | 104 | 92.6 | 96.3 | 102 | 99.1 | 86.8 | 89.7 | 95.6 | 94 | 103 | 95 | 94.1 | > 10 | > 10 | > 10 | > 10 | > 10 | 0 | 0 | 0 | 0.9 | 0
CCCCNc1ccc(C(=O)OCCN(C)C)cc1 [tetracaine] | 107 | 101 | 98.2 | 98.4 | 108 | 107 | 105 | 103 | 101 | 99.5 | 99.5 | 99.3 | 104 | 104 | 94.3 | 101 | 92.7 | 105 | 100 | 101 | 104 | 97.4 | 98.7 | 98.2 | 102 | > 10 | > 10 | > 10 | > 10 | > 10 | 0 | 0 | 0 | 0 | 0
CCCCS(=O)(=O)N[C@@H](Cc1ccc(OCCCCC2CCNCC2)cc1)C(=O)O [tirofiban] | 94.5 | 84.1 | 96.3 | 105 | 110 | 94.8 | 93.5 | 93.7 | 86.3 | 101 | 99.1 | 102 | 104 | 91.5 | 99.6 | 94 | 99.9 | 98.3 | 104 | 107 | 95.5 | 98.5 | 98.7 | 101 | 105 | > 10 | > 10 | > 10 | > 10 | > 10 | 0 | 0 | 0 | 0 | 0
